Test results taken from patent US20230165252A1, “ACTIVE COMPOUND COMBINATIONS” (Bayer Aktiengesellschaft, priority 2020, published 2023).
Several values for one entry are separate records, joined by “and”; a condition that tells them apart may be missing. Equal entries are not always repeated.

How the values were obtained:
Botrytis cinerea = assay: in vitro-Test with Botrytis cinerea (microtiter growth inhibition); assay type: cell-based
Method: (§1) The degree of efficacy expressed in % is denoted: 0% means an efficacy, which corresponds to that of the control, while an efficacy of 100% means that no disease is observed.
(§2) If the actual fungicidal activity exceeds the calculated value, then the activity of the combination is super-additive, i.e. a synergistic effect exists. In this case, the efficacy, which was actually observed, must be greater than the value for the expected efficacy (E), that was calculated from the abovementioned formula.
(§3) Example: In Vitro-Test with Fungal Microorganisms
(§4) Wells of 96-well microtiter plates are filled with 10 μl of a preparation of test compound or compound combination in methanol+emulsifier alkylaryl-polyglycol-ether. Thereafter, the solvent is evaporated in a hood. At the next step, 100 μl of liquid potato dextrose medium is given into each well, that has been amended with an appropriate concentration of spores or mycelium suspension of the test fungus.
(§5) With the aid of a photometer, the extinction in all wells is measured at the wavelength of 620 nm.
(§6) The microtiter plates are incubated at 20° C. and 85% relative humidity. The inhibition of growth is determined again photometrically 3-5 days after the application. Efficacy is calculated in relation to the untreated control, 0% efficacy means fungal growth as high as in untreated control while 100% efficacy means no fungal growth is measured.

Parastagonospora nodorum = assay: in vitro-Test with Parastagonospora nodorum (microtiter growth inhibition); assay type: cell-based
Method: as §1, §2, §3, §4, §5, §6

Diaporthe citri = assay: in vitro-Test with Diaporthe citri (microtiter growth inhibition); assay type: cell-based; conditions: applied alone
Method: as §2, §3, §4, §5, §6

Alternaria alternate = assay: in vitro-Test with Alternaria alternate (microtiter growth inhibition); assay type: cell-based; conditions: for Efficacy: applied alone; for Efficacy %: alone
Method: as §1, §2, §3, §4, §5, §6

[1] = Measurement of Log P values by HPLC on reversed phase columns (EEC directive 79/831 Annex V.A8), methods [a], [b], [c]; assay type: physicochemical; conditions: for chromatographic logP: reversed-phase HPLC column
Method: Measurement of Log P values as provided herein was performed according to EEC directive 79/831 Annex V.A8 by HPLC (High Performance Liquid Chromatography) on reversed phase columns with the following methods: • ^[a]

[2] = Parastagonospora nodorum, compound alone, read-out: Efficacy %
[3] = method [a]: LC-UV, acidic range, 0.1% formic acid in water and acetonitrile as eluent (10% to 95% acetonitrile), Table 3, compounds of formula (1)
[4] = HPLC on reversed phase column, method [a]

Structure (SMILES): CCCN(CC)CC1COC2(CCC(C(C)(C)C)CC2)O1 (stereo not shown) [(1.020) spiroxamine]
- inhibition of growth at 20 ppm (Botrytis cinerea; Botrytis cinerea, single active at 20 ppm, read-out: Efficacy %): 15%
- inhibition of growth at 0.8 ppm (Parastagonospora nodorum; [2]): 6%
- inhibition of growth at 4 ppm (Parastagonospora nodorum; [2]): 0%
- inhibition of growth at 20 ppm (Parastagonospora nodorum; Parastagonospora nodorum, compound alone, 20 ppm, read-out: Efficacy %): 0%

Structure (SMILES): Cc1cc(C)nc(Nc2ccccc2)n1 [(7.005) pyrimethanil]
- inhibition of growth at 0.8 ppm (Botrytis cinerea; Botrytis cinerea, single active at 0.8 ppm, read-out: Efficacy %): 78%
- inhibition of growth at 0.8 ppm (Parastagonospora nodorum; [2]): 99%
- inhibition of growth at 4 ppm (Parastagonospora nodorum; [2]): 100%
- Efficacy % (Parastagonospora nodorum; compound alone, 20 ppm): 100%

Structure (SMILES): Cc1ccc(C(F)(F)CNC(=O)c2c(Oc3cccc(C4CC4)c3F)nnc(Cl)c2C)c(C)c1 [(1-655)]
- Efficacy % (Botrytis cinerea; single active at 0.004 ppm): 0%
- Efficacy % (Botrytis cinerea; single active at 0.020 ppm): 0%
- Efficacy % (Botrytis cinerea; single active at 0.1 ppm): 58%
- Efficacy % (Botrytis cinerea; single active at 0.5 ppm): 100%

Structure (SMILES): Cc1ccc(C(F)(F)CNC(=O)c2c(Oc3cccc(C4CC4)c3F)nnc(Cl)c2C)cc1C [(1-749)]
- Efficacy % (Botrytis cinerea; single active at 0.004 ppm): 0%
- Efficacy % (Botrytis cinerea; single active at 0.020 ppm): 0%
- Efficacy % (Botrytis cinerea; single active at 0.1 ppm): 45%
- Efficacy % (Botrytis cinerea; single active at 0.5 ppm): 99%

Structure (SMILES): CC1CC(C)(C)c2c(F)ccc(NC(=O)c3cn(C)nc3C(F)F)c21 (stereo not shown) [Compound 2.028, inpyrfluxam]
- Efficacy (Diaporthe citri; 0.008 ppm): 0% and 7%
- Efficacy (Diaporthe citri; 0.04 ppm): 23%
- Efficacy (Diaporthe citri; 0.2 ppm): 47% and 32%
- Efficacy (Diaporthe citri; 1.0 ppm): 92% and 94%
- Efficacy (Alternaria alternate; 0.008 ppm): 0%
- Efficacy (Alternaria alternate; 0.04 ppm): 57%
- Efficacy (Alternaria alternate; 0.2 ppm): 73%
- Efficacy (Alternaria alternate; 1.0 ppm): 79%

Structure (SMILES): Cn1cc(C(=O)Nc2ccc(F)cc2-c2ccc(Cl)c(Cl)c2)c(C(F)F)n1 [bixafen]
- Efficacy (Parastagonospora nodorum; 0.2 ppm): 34%
- Efficacy (Parastagonospora nodorum; 1.0 ppm): 41%
- Efficacy % (Alternaria alternate; 0.04 ppm): 79%
- Efficacy % (Alternaria alternate; 0.2 ppm): 81%
- Efficacy % (Alternaria alternate; 1.0 ppm): 86%

Structure (SMILES): O=C1c2ccccc2C(=O)N1SC(Cl)(Cl)Cl [(5.012) folpet]
- inhibition of growth at 0.08 ppm (Botrytis cinerea; Botrytis cinerea, single active at 0.08 ppm, read-out: Efficacy %): 0%
- inhibition of growth at 0.4 ppm (Botrytis cinerea; Botrytis cinerea, single active at 0.4 ppm, read-out: Efficacy %): 2%
- Efficacy % (Botrytis cinerea; single active at 0.4 ppm): 0%
- inhibition of growth at 2 ppm (Parastagonospora nodorum; Parastagonospora nodorum, compound alone, 2 ppm, read-out: Efficacy %): 91%
- inhibition of growth at 10 ppm (Parastagonospora nodorum; Parastagonospora nodorum, compound alone, 10 ppm, read-out: Efficacy %): 100%

Structure (SMILES): Cc1ccc(C(F)(F)CNC(=O)c2c(Oc3cccc(C4CC4)c3F)nnc(Cl)c2C)c(Cl)c1 [(1-746)]
- Efficacy % (Botrytis cinerea; single active at 0.004 ppm): 0%
- Efficacy % (Botrytis cinerea; single active at 0.020 ppm): 0%
- Efficacy % (Botrytis cinerea; single active at 0.1 ppm): 38%
- Efficacy % (Botrytis cinerea; single active at 0.5 ppm): 100%

Structure (SMILES): Cc1cc(C(=O)NCCc2ccc(C(F)F)cn2)c(Oc2cccc(C3CC3)c2)nn1 [I-282]
- LogP ([1]; HPLC method [b]): 2.82^[b]

Structure (SMILES): O=C(O)c1cc(C2CC2)nnc1Oc1cccc(C(F)(F)F)c1 [Compound 1-043]
- LogP [1, 3]: 1.90^[a]

Structure (SMILES): CCOC(=O)c1cc(SC)nnc1Oc1cccc(C(F)(F)F)c1 [Compound 1-083]
- chromatographic logP [1, 3]: 3.96

Structure (SMILES): COC(=O)c1cc(Cl)nnc1Oc1cccc(C(F)(F)F)n1 [Compound 1-071]
- chromatographic logP [1, 3]: 2.69

Structure (SMILES): Cc1ccc(C(F)(F)CNC(=O)c2c(Oc3cccc(C(F)(F)F)c3)nnc(Cl)c2NCCC2CC2)c(C)c1 [I-809]
- LogP ([1]; method [a]): 4.95^[a]

Structure (SMILES): O=C(NCC(F)(F)c1ccc(Br)cc1Cl)c1cc(Cl)nnc1Cl [Compound 3-10, N-[2-(4-bromo-2-chloro-phenyl)-2,2-difluoro-ethyl]-3,6-dichloro-pyridazine-4-carboxamide]
- chromatographic logP ([1]; method [a]): 3.29
- chromatographic logP ([1]; method [b]): 3.24

Structure (SMILES): Cc1cc(C(=O)O)c(Oc2cccc(C(F)F)c2)nn1 [Compound 1-098]
- LogP [1, 3]: 1.36^[a]

Structure (SMILES): Cc1ccc(C(F)(F)CNC(=O)c2cc(CCC#N)nnc2Oc2cccc(C(F)(F)F)c2)c(C)c1 [I-662]
- LogP ([1]; method [a]): 3.78^[a]

Structure (SMILES): C[C@@H]1CC(C)(C)c2c(F)ccc(NC(=O)c3cn(C)nc3C(F)F)c21 [(2.028) inpyrfluxam]
- Efficacy % (Botrytis cinerea; single active at 0.008 ppm): 0%
- Efficacy % (Botrytis cinerea; single active at 0.04 ppm): 48% and 55%
- Efficacy % (Botrytis cinerea; single active at 0.2 ppm): 60% and 66%
- Efficacy % (Botrytis cinerea; single active at 1.0 ppm): 63% and 91%
- Efficacy % (Parastagonospora nodorum; compound alone, 0.008 ppm): 0%
- Efficacy % (Parastagonospora nodorum; compound alone, 0.04 ppm): 23%
- Efficacy % (Parastagonospora nodorum; compound alone, 0.2 ppm): 33%
- Efficacy % (Parastagonospora nodorum; compound alone, 1.0 ppm): 33%

Structure (SMILES): COC(=O)c1cc(C)nnc1Oc1cccc(C2CC2)c1F [Compound 1-100]
- chromatographic logP [1, 3]: 2.89

Structure (SMILES): Cc1c(Cl)nnc(Oc2cccc(C3CC3)c2F)c1C(=O)O [Compound 1-005]
- LogP [1, 3]: 1.84^[a]

Structure (SMILES): COC(=O)c1cc(Cl)nnc1Oc1cccc(C(F)F)c1 [Compound 1-124]
- chromatographic logP [1, 3]: 2.76

Structure (SMILES): O=C(O)c1cc(-c2ccncc2Cl)nnc1Oc1cccc(F)c1F [Compound 1-053]
- LogP [1, 3]: 1.22^[a]

Structure (SMILES): CCOC(=O)c1c(Oc2cccc(C3CC3)c2)nnc(Cl)c1Cl [Compound 1-056]
- chromatographic logP [1, 3]: 4.41

Structure (SMILES): Cc1cc(C2CC2)ccc1C(F)(F)CNC(=O)c1cc(Cl)nnc1Oc1cccc(C(F)(F)F)c1 [Compound I-240, 6-chloro-N-[2-(4-cyclopropyl-2-methyl-phenyl)-2,2-difluoro-ethyl]-3-[3-(tri-fluoromethyl)phenoxy]pyridazine-4-carboxamide]
- chromatographic logP ([1]; HPLC method [a]): 4.77

Structure (SMILES): CCOC(=O)c1cc(Cl)nnc1Oc1cccc(Cl)c1F [Compound 1-119]
- chromatographic logP [1, 3]: 3.6

Structure (SMILES): Cc1cc(C(=O)NC2CCOc3c(C)cccc32)c(Oc2cccc(C(F)(F)F)c2)nn1 (racemic) [I-107]
- LogP [1, 4]: 3.65^[a]

Structure (SMILES): Cc1cc(C(=O)NCC(F)(F)c2ccc(C3CCC3)cc2Cl)c(Oc2cccc(C(F)(F)F)c2)nn1 [I-028]
- LogP [1, 4]: 4.83^[a]

Structure (SMILES): COC(=O)N(CC(F)(F)c1ccc(C)cc1C)C(=O)c1cc(Cl)nnc1Oc1cccc(C(F)(F)F)c1 [Compound I-335, methyl N-[6-chloro-3-[3-(trifluoromethyl)phenoxy]pyridazine-4-carbonyl]-N-[2-(2,4-dimethylphenyl)-2,2-difluoro-ethyl]carbamate]
- chromatographic logP ([1]; HPLC method [a]): 5.19

Structure (SMILES): O=C(NCC(F)(F)c1ccc(Cl)cn1)c1cc(Cl)nnc1Oc1cccc(C(F)F)c1 [I-158]
- LogP [1, 4]: 3.32^[a]

Structure (SMILES): Cc1c(Cl)nnc(Oc2cccc(C3CC3)c2F)c1C(=O)NCCc1ccc(Cl)cc1Cl [I-215]
- LogP [1, 4]: 4.58^[a]

Structure (SMILES): O=C(NCCc1ccc(C(F)(F)F)cn1)c1cc(Cl)nnc1Oc1cccc(C(F)(F)F)c1 [I-068]
- LogP [1, 4]: 3.53^[a]

Structure (SMILES): CC(C)OC(=O)c1cc(Cl)nnc1Oc1cncc(C(F)F)c1 [Compound 1-102]
- LogP [1, 3]: 2.82^[a]

Structure (SMILES): Cc1ccc(C(F)(F)CNC(=O)c2cc(Cl)nnc2Oc2cncc(Br)c2)c(C)c1 [I-173]
- LogP [1, 4]: 3.78^[a]

Structure (SMILES): COc1ccc(CCNC(=O)c2cc(Cl)nnc2Oc2cccc(C(F)(F)F)c2)cc1OC [I-268]
- LogP ([1]; HPLC method [a]): 3.26^[a]

Structure (SMILES): Cc1nnc(Oc2cccc(C(F)(F)F)c2F)c(C(=O)O)c1C [Compound 1-009]
- LogP [1, 3]: 1.40^[a]

Structure (SMILES): O=C(NCC(F)(F)c1ccc(C(F)(F)F)cc1Cl)c1cc(Cl)nnc1Oc1cccc(C(F)(F)F)c1 [I-418]
- LogP ([1]; HPLC method [a]): 4.45^[a]

Structure (SMILES): CCOC(=O)c1c(Oc2cccc(Cl)c2F)nnc(Cl)c1C [Compound 1-121]
- chromatographic logP [1, 3]: 3.88

Structure (SMILES): Cc1ccc(C(F)(F)CNC(=O)c2cc(C)nnc2Oc2cccc(C(F)(F)F)c2)c(C)c1 [I-411]
- LogP ([1]; HPLC method [a]): 4.00^[a]

Structure (SMILES): Cc1ccc(C(F)(F)CNC(=O)c2cc([S+](C)[O-])nnc2Oc2cccc(C(F)(F)F)c2)c(C)c1 (racemic) [I-781]
- LogP ([1]; method [a]): 3.65^[a]

Structure (SMILES): O=C(O)c1cc(C2CC2)nnc1Oc1cccc(C(F)F)c1 [Compound 1-012]
- LogP [1, 3]: 1.68^[a]

Structure (SMILES): Cc1cc(C(=O)O)c(Oc2cncc(C(F)(F)F)c2)nn1 [Compound 1-019]
- LogP [1, 3]: 1.01^[a]

Structure (SMILES): COC(=O)c1c(Oc2cccc(Cl)c2)nnc(C)c1C [Compound 1-042]
- chromatographic logP [1, 3]: 2.71

Structure (SMILES): COc1ccc(CCNC(=O)c2c(Oc3cccc(C(F)(F)F)c3)nnc(Cl)c2C)c(OC)c1 [I-500]
- LogP ([1]; method [a]): 3.65^[a]

Structure (SMILES): CSc1cc(C(=O)O)c(Oc2cccc(C(F)(F)F)c2)nn1 [Compound 1-004, 6-methylsulfanyl-3-[3-(trifluoromethyl)phenoxy]pyridazine-4-carboxylic acid]
- chromatographic logP [1, 3]: 2.25

Structure (SMILES): CSc1cc(C(=O)NCC(F)(F)c2ccc(C)cc2C)c(Oc2cccc(C(F)(F)F)c2)nn1 [Compound I-767, N-[2-(2,4-dimethylphenyl)-2,2-difluoro-ethyl]-6-methylsulfanyl-3-[3-(trifluoromethyl)phenoxy]pyridazine-4-carboxamide]
- chromatographic logP ([1]; method [a]): 4.72

Structure (SMILES): C=C(C)OC(=O)N(CC(F)(F)c1ccc(C)cc1C)C(=O)c1cc(Cl)nnc1Oc1cccc(C(F)(F)F)c1 [I-785]
- LogP ([1]; method [a]): 5.51^[a]

Structure (SMILES): CCSc1c(Cl)nnc(Oc2cccc(C(F)(F)F)c2)c1C(=O)NCC(F)(F)c1ccc(C)cc1C [I-442]
- LogP ([1]; method [a]): 4.87^[a]

Structure (SMILES): CC(=O)c1cccc(Oc2nnc(Cl)cc2C(=O)O)c1 [Compound 1-093]
- LogP [1, 3]: 1.01^[a]
